Source: publication PMC6940745 (International Journal of Molecular Sciences, 2019)
Where a SMILES comes first, the peptide text is derived from it. [ ]: non-standard residue; d: D form. The star is where a group is joined. Bz = O=C(c1ccccc1)*; NPr2 = CCCN(CCC)*

Key:
[1] = target: human MCH2R (Homo sapiens, UniProt Q969V1); experiment: MCH2R activation, Aequorin assay; assay type: cell-based; conditions: eight concentrations, 0.01 to 100,000 nM
Method: (§1) Melanin-concentrating hormone receptor (MCHR), endothelin-1 receptor (ETBR), and serotonin-receptor (5-HT2AR) assays were performed by means of Aequorin assays. Recombinant cells co-expressing human MCH1R, MCH2R, ETBR, or 5-HT2AR and mitochondrial apoaequorin (MCH1R, MCH2R and 5-HT2AR cells also co-express recombinant Gα16 protein) (EuroscreenFast, Gosselies, Belgium), grown 18 h prior to the test in media without antibiotics, were detached by gentle flushing with PBS-EDTA (5 mM EDTA), recovered by centrifugation, and resuspended in assay buffer (DMEM/HAM’s F12 with HEPES + 0.1% BSA protease free). Cells were incubated under agitation at room temperature for at least 4 h with Coelenterazine h (Promega, X300X, 0.5 µM final concentration). Dose response curves with the reference compounds were performed before testing the compounds. For agonist testing, 50 µL of cell suspension was injected on 50 µL of test compound or reference agonist diluted in assay buffer and plated in a 96-well plate. The resulting emission of light was recorded using the Hamamatsu Functional Drug Screening System 6000 (FDSS 6000). […] Agonist activity of test compound was expressed as a percentage of the activity of the reference agonist at its EC100 concentration.

[2] = target: human ETBR (Homo sapiens, UniProt P24530); experiment: ETBR activation, Aequorin assay; assay type: cell-based; conditions: eight concentrations, 0.01 to 100,000 nM
Method: as §1

[3] = tested on: MC1R; experiment: MC1R expression in ex vivo epidermis in the presence of UVA; assay type: cell-based, human; conditions: ex vivo epidermis in the presence of UVA (Figure S1)

Sequence of human MCH2R (Q969V1 whole entry): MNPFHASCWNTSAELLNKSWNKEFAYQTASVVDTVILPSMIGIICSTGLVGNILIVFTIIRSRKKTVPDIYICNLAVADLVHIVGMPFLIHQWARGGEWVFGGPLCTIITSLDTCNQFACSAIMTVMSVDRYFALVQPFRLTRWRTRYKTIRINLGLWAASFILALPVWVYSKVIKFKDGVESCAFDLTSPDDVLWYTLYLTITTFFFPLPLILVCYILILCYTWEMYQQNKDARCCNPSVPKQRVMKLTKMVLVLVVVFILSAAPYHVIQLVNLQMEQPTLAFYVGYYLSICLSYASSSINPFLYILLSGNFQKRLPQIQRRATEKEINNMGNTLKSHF
Sequence of human ETBR (P24530 27-442): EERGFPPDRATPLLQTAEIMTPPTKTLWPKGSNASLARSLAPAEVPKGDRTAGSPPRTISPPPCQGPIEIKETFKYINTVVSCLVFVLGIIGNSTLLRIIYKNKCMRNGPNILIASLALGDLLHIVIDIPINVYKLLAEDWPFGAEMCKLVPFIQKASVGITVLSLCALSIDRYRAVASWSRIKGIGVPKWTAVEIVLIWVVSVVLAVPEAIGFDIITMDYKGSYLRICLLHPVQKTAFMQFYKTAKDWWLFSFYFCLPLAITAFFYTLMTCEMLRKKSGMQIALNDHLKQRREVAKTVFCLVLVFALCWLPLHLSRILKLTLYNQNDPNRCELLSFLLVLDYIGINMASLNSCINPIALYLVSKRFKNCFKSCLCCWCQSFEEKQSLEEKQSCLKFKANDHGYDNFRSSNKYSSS

## CCCN(CCC)C(=O)[C@@H](Cc1c[nH]c2ccccc12)NC(=O)[C@H](CCCNC(=N)N)NC(=O)[C@@H](Cc1ccccc1)NC(=O)[C@H](Cc1c[nH]cn1)NC(=O)CNC(=O)c1ccccc1 [Peptide 4] (Bz-GH[dF]R[dW]-NPr2)
[1]
  EC50: > 100 µM
[2]
  EC50: > 100 µM
[3]
  Influence on expression of MC1R: no influence
